Measured values reported in patent US11867690B2, “Identification of functional cell states” ([…] AG, priority 2014, dated 2024).
“Also recorded” adds a separate entry of the source.

Tests used:
HL-60 cells [1] = test: Cell physiology assay plate 1a: flow cytometry with MBBR, CALCEIN AM, MITOSOX RED and SYTOXRED; format: cell-based, human
Procedure: (§1) Cells were deposited into 384 well plates (1×10^6 cells in 40 μl tissue culture media), and serial dilutions of test compounds (or vehicle in the case of controls) were deposited in individual wells using standard robotic techniques. Compound deposition and dilution was performed by BIOMEK FX (5 or 10-step dilutions from 100 to 0.005 μM). Dilutions were prepared from stock solutions of compounds dissolved initially in 100% DMSO. Final volume deposited into each well is 2 μl of each compound dilution (compounds are in a final concentration of 1% DMSO). After incubation in a tissue culture incubator (5% CO2 at 37° C.) for varying periods of time (typically 4 hours), plates were centrifuged at room temperature, followed by removal of 20 μl supernatant fluid. After vibration of the plate to re-suspend cells, a dye mix (Plate 1a Monobromobimane, CALCEIN AM, MITOSOX™ and SYTOSOX™ RED; plate 1b VYBRANVIOLET™ Live Cell Cycle dye, JC-9, and SYTOSOX™ RED) was added in a total volume of 20 μl, followed by an additional mixing step.
Each well of the 384-well plate was sampled with a 6 second sip time, plus 1 second delay between wells, resulting in a total read time for each plate of approximately 45 minutes. Data was acquired using a CYAN™ flow cytometer, with the […]™ software used to compile files for each well on an individual plate using an FCS format. Data for each plate was subsequently analyzed for several quality assurance parameters (total number of events per well, numbers of events associated with morphologically normal events, number of dead cells), as described below.
Flow cytometric analyses of intrinsic cell properties (forward light scatter and light scattered orthogonal to the laser beam) and fluorescence signals derived from the dyes listed in Table 1 was carried out for plates 1a and 1b.
Chem. Soc. […] Technol. […] MITOSOX™ RED is a compound that can diffuse into viable cells and reacts with superoxide anion species, particularly products of mitochondrial respiration; conditions such as cell stress can cause mitochondria to respond (sometimes rapidly) by increasing respiration and/or release superoxide anions; and • (3) SYTOXRED™ to measure cell viability (loss of nuclear membrane integrity). SYTOXRED™ is a high-affinity DNA stain that can only pass through the cytoplasmic and nuclear membranes of cells which have lost the integrity of both membranes; thus, brightly fluorescent cells are dead.

[2] = tested on: phosphorylation of the downstream STAT5 target in K562 cells; test: Phosphorylation of STAT5 in K562 cells by flow cytometry; format: cell-based; conditions: Homo sapiens, 0.5 h, 30 min
Procedure: Cells were deposited onto dilutions of test compounds deposited into individual wells of […], as indicated above. Following incubation in a tissue culture incubator (5% CO2 at 37° C.) for 30 minutes to 12 hr, the cells were pelleted by centrifugation, the supernatant was removed, the cells were re-suspended by vibration in the remaining supernatant fluid, and 50 μl of fixative (1.2% formaldehyde in PBS) was added. Following 15 min incubation (at 37° C.), cells were pelleted by centrifugation, supernatant removed, and the cells were suspended by vibrating the plate.
Cell were permeabilized by adding 150 μl cold absolute methanol, followed by incubation at 4° C. for 15 minutes. Permeabilized cells were centrifuged, supernatant removed, and cells were washed three times with cold (4° C.) PBS containing 4% FBS. Following the final wash, cells were centrifuged, the supernatant was removed, and cells were re-suspended in an antibody cocktail (total volume 20 μl) appropriate for that experiment.

HL-60 cells [3] = test: Plate 1b: mitochondrial membrane potential (MMP) measured with JC-9 by flow cytometry; format: cell-based, human
Procedure: as §1, with “step. Plates were returned to the tissue culture incubator (5% CO2 at 37° C.) for an additional 15 min (plate 1a) or 30 min (plate 1b), followed by immediate analysis using the […]-CYAN™.” for “step.”
Measurements identical to those described in Example 2 above were made using a second combination of dyes: • (1) VYBRANVIOLET™ to measure cell cycle in live cells; • (2) JC-9 to measure mitochondrial membrane potential (MMP); and • (3) SYTOXRED™ (as described herein above).
The measurement of mitochondrial membrane potential (MMP) with JC-9 was performed with two independent fluorescence channels (green and red fluorescence signals), as changes in MMP cause aggregation of the dye, with different fluorescence emission by the aggregated versus non-aggregated dye molecules. […] At higher valinomycin concentrations, red fluorescence […]. A unique aspect of this assay is that it correlates changes in MMP (JC-9) and cell death (SYTOXRED™) with the phases of the cell cycle (G1, S, and G2M).
An identical study to the one described before was conducted with exposing HL60 cells exposed to 1.23 μM idarubicin, an analog of daunorubicin which inserts into DNA and prevents it from unwinding during DNA replication and arrests cell division.

[4] = tested on: human peripheral blood monocytes; test: Kinetics of signal transduction responses to LPS in whole blood monocytes by flow cytometry; format: cell-based; conditions: LPS alone
Description: Herein, specific dyes that monitor cell membrane permeability (marker for cell death), nuclear membrane permeability (marker for cell death), signal transduction pathways implicated in DNA damage (phospho-Histone H2A, phospho-ATM/ATR, phospho-p53), signal transduction pathways implicated in inflammation (e.g., NF-kB), signal transduction via the MAP kinase pathways (ERK, SAP/JNK, p38), signal transduction via the PI3 Kinase pathway (Akt, GSK3B, RS6K, S6), early apoptotic pathways (e.g., annexin V), mid apoptotic pathways (e.g., cleaved caspase), late apoptotic pathways (e.g., PARP/DNA fragmentation), etc. may be employed.

[5] = 33 μM, cells with normal morphology
[6] = 33 μM, population with altered morphology

Compound: N#CC(C#N)=NNc1ccc(OC(F)(F)F)cc1 [FCCP, carbonyl cyanide-4-(trifluoromethoxy)phenylhydrazone]
- CALCEIN AM (HL-60 cells [1]; [5]): normal
- GSH (HL-60 cells [1]; [5]): normal
- ROS (HL-60 cells [1]; [5]): increased ROS
- nuclear and cytoplasmic membranes (SYTOX Red uptake) (HL-60 cells [1]; [5]): intact nuclear and cytoplasmic membranes
- CALCEIN (HL-60 cells [1]; [6]): increased CALCEIN
- GSH (HL-60 cells [1]; [6]): reduced GSH
- ROS (HL-60 cells [1]; [6]): increased ROS
- SYTOXRED (HL-60 cells [1]; [6]): higher SYTOXRED™

Compound: Cc1ccc(NC(=O)c2ccc(CN3CCN(C)CC3)cc2)cc1Nc1nccc(-c2cccnc2)n1 [GLEEVEC, imatinib]
- inhibition at 2 µM [2]: > 95%

Compound: CNCCC(Oc1ccc(C(F)(F)F)cc1)c1ccccc1 (centres unmarked) [fluoxetine]
- CALCEIN AM (HL-60 cells [1]; 100 μM): reduced CALCEIN AM
- GSH (MBBR) (HL-60 cells [1]; 100 μM): reduced GSH
- ROS (MITOSOX RED) (HL-60 cells [1]; 100 μM): increased ROS
- cell death in relation to cell cycle (SYTOXRED histogram) (HL-60 cells [1]; 100 μM): cells are dying throughout the cell cycle

Compound: CC(=O)[C@]1(O)Cc2c(O)c3c(c(O)c2[C@@H](O[C@H]2C[C@H](N)[C@H](O)[C@H](C)O2)C1)C(=O)c1ccccc1C3=O [idarubicin]
- JC-9 red fluorescence versus untreated control cells (HL-60 cells [3]; 1.23 μM): significantly higher
- JC-9 green fluorescence (HL-60 cells [3]; FIG. 6B): does not increase

Compound: CO/C(=C/C(N)=O)[C@H](C)[C@H](/C=C/c1csc(-c2csc([C@@H](C)/C=C/C=C/C(C)C)n2)n1)OC [myxothiazol]
- CALCEIN AM (HL-60 cells [1]; 100 μM): decrease
- GSH (MBBR) (HL-60 cells [1]; 100 μM): decrease
- ROS (MITOSOX RED) (HL-60 cells [1]; 100 μM): increase
- SYTOXRED (cytoplasmic and nuclear membrane permeability, viability) (HL-60 cells [1]; 100 μM): increase
- cell morphology (light scatter) (HL-60 cells [1]; 100 μM): significant change in cell morphology
- SYTOXRED (cytoplasmic and nuclear membrane permeability, viability) (HL-60 cells [1]; 100 μM, listed as myxothiozol): perturbs cytoplasmic and nuclear membrane permeability (viability)

Compound: CC(C)[C@@H]1NC(=O)[C@H](C)OC(=O)[C@@H](C(C)C)NC(=O)[C@@H](C(C)C)OC(=O)[C@H](C(C)C)NC(=O)[C@H](C)OC(=O)[C@@H](C(C)C)NC(=O)[C@@H](C(C)C)OC(=O)[C@H](C(C)C)NC(=O)[C@H](C)OC(=O)[C@@H](C(C)C)NC(=O)[C@@H](C(C)C)OC1=O [valinomycin]
- concentration at peak of JC-9 red and green fluorescence (HL-60 cells [3]; FIG. 6A legend): ~0.045 µM
- concentration at peak JC-9 green fluorescence (HL-60 cells [3]; FIG. 6A, Example 4A): ~0.05 µM
- JC-9 red and green fluorescence (HL-60 cells [3]; with increasing concentration, FIG. 6A): initially increase; also recorded: significantly higher

Compound: lipopolysaccharide [LPS]
- ERK, Akt and S6 (phosphorylation) [4]: activated; also recorded: activates (phosphorylates)
- Iκ kinase (proteasomal degradation of IκBα) [4]: activates
